In US7524849B2, “5-arylpyrimidines as anticancer agents” (Wyeth Holdings Corporation, priority 2003, dated 2009):
Like-named read-outs stand apart in the source and are kept apart here. Marks after values point to notes of the source that are not given here.

Assays:
KB cells = test: MTS cytotoxicity test with KB cells; format: cell-based, human; settings: mean of 2 experiments
From the text: (§1) Human cancer cell lines, unless otherwise noted, are obtained from the American Type Culture Collection (Rockville, Md.). The following drug-sensitive parental cell lines, and their derived drug-resistant counterparts, are obtained from the originators as listed: (a) S1 (parental line from a subclone of human colon carcinoma line LS174T) and derived S1-M1-3.2 (herein called S1-M1) which expresses the MXR drug transporter protein, are provided by Dr. L. Greenberger, Wyeth Research (Rabindran, S. K., He, H., Singh, M., Brown, E., Collins, K. I., Annable, T., and Greenberger, L. M. Reversal of a novel multidrug resistance mechanism in human colon carcinoma cells by fumitremorgin C. Cancer Res., 58: 5850-5858, 1998); (b) parental HL-60 human promyelocytic leukemia line and derived HL-60/ADR, which expresses the MRP1 drug transporter protein, are provided by Dr. M. Center, University of Kansas (McGrath, T., and Center, M. S. Adriamycin resistance in HL60 cells in the absence of detectable P-glycoprotein. Biochem. Biophys. […] J. Biol. Chem., 261: 7762-7770, 1986) via Dr. L. Greenberger, Wyeth Research.
(§2) The assay, which is sold in kit form by Promega (Madison, Wis.; CellTiter 96 AQueous Non-Radioactive Cell Proliferation Assay), is based on the conversion by viable cells, but not by dead cells, of the tetrazolium salt, MTS (3-(4,5-dimethylthiazol-2-yl)-5-(3-carboxymethoxyphenyl)-2-(4-sulphophenyl)-2H-tetrazolium, inner salt), into a water-soluble colored formazan which is detected by spectrophotometry. Compounds are tested at nine concentrations, in order to determine IC50 values. For the test procedure, cells are harvested by trypsinization, washed, counted and distributed to wells of 96-well flat-bottom microtiter plates at 1000 cells per well in 200 μL of medium. In addition, one row of wells on a separate plate receives cells as above (“time 0” plate). All plates are incubated at 37° in humidified 5% CO2 in air for about 24 hr.
(§3) On day 2, compounds for test are diluted and added to wells. Compounds are dissolved in DMSO at 10 mg/mL. For each compound, nine serial 2-fold dilutions are prepared in DMSO. Ten μL of each dilution in DMSO are transferred to 100 μL of medium, mixed well, and then 5 μL of this dilution are transferred in quadruplicate to wells containing cells. […] Plates are returned to the incubator for three days. At the time of drug addition to the experimental plates, the MTS assay is run on the “time 0” plate. This produces the “time 0 MTS value” which is related to the number of viable cells per well at the time of drug addition.
(§4) After three days of culture with test compounds (day 5 overall), the MTS assay is done on all wells of the experimental plates. The absorbance values of the quadruplicate sample wells are averaged and divided by the average of the “time 0” values. […] The nine values for each compound are plotted against concentration, and the concentration that produces a relative color yield half way between the maximum and minimum is taken as the IC50 value.

KB-8-5 cells = test: MTS cytotoxicity test with KB-8-5 cells (moderate P-glycoprotein); format: cell-based, human; settings: for IC50: KB 8.5 cells, mean of 2 experiments; for Ratio 8.5/KB: IC50 on KB 8.5 cells/IC50 on KB cells
From the text: as §1, §2, §3, §4

KB-V1 cells = test: MTS cytotoxicity test with KB-V1 cells (very high P-glycoprotein); format: cell-based, human; settings: for IC50: KB VI cells, mean of 2 experiments; for Ratio VI/KB: IC50 on KB VI cells/IC50 on KB cells; for recognition by P-glycoprotein: inferred from change in IC50 KB-V1 vs KB
From the text: as §1, §2, §3, §4

HL-60 cells = test: MTS cytotoxicity test with HL-60 cells; format: cell-based, human; settings: mean of 2 experiments
From the text: as §1, §2, §3, §4
(§5) HL-60/ADR cells overexpress the multidrug resistance protein MRP1 which mediates resistance to some chemotherapeutics (Gottesman, M. M., Fojo, T., and Bates, S. E. Multidrug resistance in cancer: role of ATP-dependent transporters. Nature Rev. Cancer, 2: 48-58, 2002). The IC50 values of representative examples of this invention, as well as reference compounds, on HL-60/ADR are compared to values on the sensitive parental HL-60 line.

HL-60/ADR cells = test: MTS cytotoxicity test with HL-60/ADR cells (MRP1); format: cell-based, human; settings: for IC50: HL-60/ADR cells, mean of 2 experiments; for Ratio: IC50 on HL-60/ADR cells/IC50 on HL-60 cells
From the text: as §1, §2, §3, §4, §5

S1 cells = test: MTS cytotoxicity test with S1 cells; format: cell-based, human; settings: mean of 2 experiments
From the text: as §1, §2, §3, §4
as §5, with “S1-M1” for “HL-60/ADR”, “MXR transporter” for “multidrug resistance protein MRP1”, “Miltidrug” for “Multidrug”, “S1” for “HL-60”

S1-M1 cells = test: MTS cytotoxicity test with S1-M1 cells (MXR); format: cell-based, human; settings: for IC50: S1-M1 cells, mean of 2 experiments; for Ratio: IC50 on S1-M1 cells/IC50 on S1 cells
From the text: as §1, §2, §3, §4
as §5, with “S1-M1” for “HL-60/ADR”, “MXR transporter” for “multidrug resistance protein MRP1”, “Miltidrug” for “Multidrug”, “S1” for “HL-60”

COLO 205 cells = test: MTS cytotoxicity test with COLO 205 cells; format: cell-based, human; settings: three days with compound
Experimental: as §2
On day 2, compounds for test are diluted and added to wells. Compounds are dissolved in DMSO at 10 mg/mL. For each compound, nine serial 2-fold dilutions are prepared in DMSO. Ten μL of each dilution in DMSO are transferred to 100 μL of medium, mixed well, and then 5 μL of this dilution are transferred in quadruplicate to wells containing cells. The final high concentration of each compound is typically 5 μM. Plates are returned to the incubator for three days. At the time of drug addition to the experimental plates, the MTS assay is run on the “time 0” plate. This produces the “time 0 MTS value” which is related to the number of viable cells per well at the time of drug addition.
After three days of culture with test compounds (day 5 overall), the MTS assay is done on all wells of the experimental plates. The absorbance values of the quadruplicate sample wells are averaged and divided by the average of the “time 0” values. The average of control wells without drug, divided by the average “time 0” value, gives the maximal relative increase in MTS color yield due to cell growth during the final three days of culture. The average of control wells with high drug concentration, divided by the “time 0” value, gives the minimal relative color yield for cells that were completely killed. The nine values for each compound are plotted against concentration, and the concentration that produces a relative color yield half way between the maximum and minimum is taken as the IC50 value.
COLO 205 is a human colon carcinoma cell line that is used for comparative testing of the examples of this invention and several reference compounds. This line is sensitive to paclitaxel and vincristine.

[1] = test system: H157 Human Non-Small Cell Lung Carcinoma; settings: for T/C on day 0 / T/C on day 3 / T/C on day 7 / T/C on day 10 / T/C on day 13: schedule day 0;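 for all read-outs here: subcutaneous flank tumors in female athymic nu/nu mice, staged near 100 mm^3 on day 0, tumor volume from caliper measurements, vehicle-dosed controls on the same schedule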
Experimental: The ability of compounds of this invention to inhibit tumor growth in animals is studied in the athymic mouse xenograft standard pharmacological test. Female nu/nu mice in an outbred albino background are obtained from Charles River Laboratories (Wilmington, Mass.). Animals are injected subcutaneously on the flank with the desired tumor cell suspension. Several days later, mice with tumors of approximately 100 mm^3 are selected from those injected (staged) and randomly distributed into groups of 5-10. The day of staging is called day 0. Compounds of the invention, formulated in saline, are administered to animals by intravenous injection or oral gavage on various schedules starting on day 0 or 1, as noted in the tables. The control group in each experiment is dosed with vehicle on the same schedule. Tumor size is measured every 3-7 days with calipers in two orthogonal dimensions, and tumor volume is calculated from the formula volume=[(length×width^2)/2].
Tumor/Control (T/C) is obtained by dividing the mean tumor volume of the treated group by the mean tumor volume of the control group on each measurement day. […] A p value≦0.05, determined by one-side Student's t-test, is required for statistical significance. A treatment dose is defined as toxic if more than 30% of the animals die from a compound-related toxicity.

MAP-rich tubulin = test: Tubulin polymerization test with MAP-rich tubulin; format: biochemical, bovine; settings: 0.3 μM compound, mean A340 at 20 min, fold enhancement over control
Experimental: Medium is RPMI-1640 with L-glutamine, supplemented with 10% heat-inactivated fetal calf serum, 100 units/mL penicillin, and 100 μg/mL streptomycin (Gibco, Grand Island, N.Y.). Microtubule-associated protein (MAP)-rich tubulin, containing about 70% tubulin and 30% MAPs (#ML113), and highly purified tubulin (>99% pure, #TL238), both from bovine brain, are obtained from Cytoskeleton, Inc., Denver, Colo. PEM buffer (80 mM piperazine-N,N′-bis[2-ethanesulfonic acid], pH 6.9, 1 mM ethylene glycol-bis(β-aminoethyl ether)-N,N,N′,N′-tetraacetic acid, 1 mM magnesium chloride) and guanosine 5′-triphosphate (GTP) are also obtained from Cytoskeleton. […] [^3H]vinblastine, specific activity 9.60 Ci/mmol and MicroSpin G-50 columns are obtained from Amersham Biosciences (Piscataway, N.J.). […] Other reagents are obtained from Sigma (St. Louis, Mo.).
MAP-rich tubulin is dissolved in ice-cold PEM buffer containing 1 mM GTP (GPEM buffer) at a concentration of 1.3 mg/mL. The solution is centrifuged at top speed in an Eppendorf model 5415C microcentrifuge (Brinkmann Instruments, Westbury, N.Y.) for 10 min at 4° immediately before use. The tubulin solution is added to wells of a ½-area 96-well plate (Costar No. 3696, Corning, Inc., Corning, N.Y.) already containing the compounds of interest. Each compound is tested in duplicate at a final concentration of 0.3 μM in a volume of 110 μL per well. The final DMSO concentration in all wells is 0.3%. Control reactions, which receive compound solvent only, are done in quadruplicate. The plate is put in a SpectraMax Plus plate reader (Molecular Devices Corp. Sunnyvale, Calif.) thermostated at 24° and the absorbance of each well at 340 nm, a measure of the appearance of turbidity due to tubulin polymer formation, is determined every minute for 60 minutes. The absorbance at time 0 for each well is subtracted from each of the subsequent absorbance readings for that well, and then the duplicates are averaged.

| Structure (SMILES) | IC50 (KB cells; Homo sapiens) | IC50 (KB-8-5 cells; Homo sapiens) | Ratio 8.5/KB (KB-8-5 cells) | IC50 (KB-V1 cells; Homo sapiens, KB-V1) | Ratio VI/KB (KB-V1 cells) | IC50 (HL-60 cells; Homo sapiens) | IC50 (HL-60/ADR cells; Homo sapiens, HL60/ADR) | Ratio (HL-60/ADR cells) | IC50 (S1 cells; Homo sapiens) | IC50 (S1-M1 cells; Homo sapiens) | Ratio (S1-M1 cells) | recognition by P-glycoprotein (KB-V1 cells) | IC50 (COLO 205 cells; Homo sapiens, 72 h) | also measured |
| --- | --- | --- | --- | --- | --- | --- | --- | --- | --- | --- | --- | --- | --- | --- |
| COc1cccc2c1C(=O)c1c(O)c3c(c(O)c1C2=O)C[C@@](O)(C(=O)CO)C[C@@H]3O[C@H]1C[C@H](N)[C@H](O)[C@H](C)O1 [Doxorubicin, reference compound] | 38 nM | 255 nM | 6.8 | > 300 nM | >79 | 40 nM | > 3000 nM | >75 | 61 nM | 2880 nM | 47 | – | – | Ratio VI/KB (KB-V1 cells; listed as doxorubicin): > 79; Ratio (HL-60/ADR cells; listed as doxorubicin): > 75 |
| O=C1c2c(O)ccc(O)c2C(=O)c2c(NCCNCCO)ccc(NCCNCCO)c21 [Mitoxantrone, reference compound] | 132 nM | 256 nM | 1.9 | 401 nM | 3.0 | 17 nM | 259 nM | 15 | 25 nM | > 3000 nM | >120 | – | – | Ratio (S1-M1 cells; listed as mitoxantrone): > 120 |
| CN(C)CCCOc1cc(F)c(-c2c(Cl)nc(-c3cnccn3)nc2NCC(F)(F)F)c(F)c1.Cl [Example 25a, 6-Chloro-5-{4-[3-(dimethylamino)propoxy]-2,6-difluorophenyl}-2-pyrazin-2-yl-N-(2,2,2-trifluoroethyl)pyrimidin-4-amine hygrogen chloride] | – | – | – | – | 4.9 | – | – | 0.9 | – | – | 1.3 | show recognition by P-glycoprotein, but much less than that shown by paclitaxel and vincristine | – | IC50 (COLO 205 cells): 18 nM; IC50 (KB cells): 20 nM; IC50 (KB-8-5 cells): 24 nM; IC50 (KB-V1 cells): 99 nM; IC50 (HL-60 cells): 23 nM; IC50 (HL-60/ADR cells): 21 nM; IC50 (S1 cells): 27 nM; IC50 (S1-M1 cells): 36 nM; T/C on day 0 ([1]; 5 mg/kg IV, H157 (Table 10)): 1.02; T/C on day 3 ([1]; 5 mg/kg IV, H157 (Table 10)): 0.69*; T/C on day 7 ([1]; 5 mg/kg IV, H157 (Table 10)): 0.44**; T/C on day 10 ([1]; 5 mg/kg IV, H157 (Table 10)): 0.29**; T/C on day 13 ([1]; 5 mg/kg IV, H157 (Table 10)): 0.23**; T/C on day 0 ([1]; 10 mg/kg IV, H157): 1.01; T/C on day 3 ([1]; 10 mg/kg IV, H157): 0.49**; T/C on day 7 ([1]; 10 mg/kg IV, H157): 0.36**; T/C on day 10 ([1]; 10 mg/kg IV, H157): 0.22**; T/C on day 13 ([1]; 10 mg/kg IV, H157): 0.12**; compound toxicity ([1]; H157 NSCLC, intravenously on day 0, highest dose (10 mg/kg)): some compound toxicity is observed |
| CN(C)CCCOc1cc(F)c(-c2c(Cl)nc(-c3ccc4ccccc4n3)nc2NCC(F)(F)F)c(F)c1 [Example 30, 6-Chloro-5-{4-[3-(dimethylamino)propoxy]-2,6-difluorophenyl}-2-quinolin-2-yl-N-(2,2,2-trifluoroethyl)pyrimidin-4-amine] | 60 nM | 68 nM | – | 82 nM | – | 88 nM | 71 nM | 0.8 | 138 nM | 201 nM | 1.5 | – | 7.4 nM | – |
| CNc1nc(Cl)c(-c2c(F)cc(OCCCN(C)C)cc2F)c(NCC(F)(F)F)n1.O=C(O)C(F)(F)F [Example 20a, 6-Chloro-5-{4-[3-(dimethylamino)propoxy]-2,6-difluorophenyl}-N^2-methyl-N^4-(2,2,2-trifluoroethyl)pyrimidine-2,4-diamine trifluoroacetic acid salt] | 26 nM | 57 nM | – | 140 nM | 5.5 | 72 nM | 68 nM | 0.9 | 95 nM | 82 nM | 0.9 | show recognition by P-glycoprotein, but much less than that shown by paclitaxel and vincristine | 56 nM | – |
| CC(=O)O[C@@]12CO[C@@H]1C[C@H](O)[C@@]1(C)C(=O)[C@H](O)C3=C(C)[C@@H](OC(=O)[C@H](O)[C@@H](NC(=O)OC(C)(C)C)c4ccccc4)C[C@@](O)([C@@H](OC(=O)c4ccccc4)[C@H]21)C3(C)C [Docetaxel, reference compound] | – | – | – | – | – | – | – | – | – | – | – | – | – | A340 Compound / A340 Control (MAP-rich tubulin): 8.6 |
